Assay results from a melting point compilation (Tetko et al.; mined from patent text by program, amines drawn as free bases though some values may be those of a salt).

SMILES	melting point [°C]
O=C(O)c1cn(C2COC2)c2c(F)c(N3CCCC3)c(F)cc2c1=O	261 to 262
CCCCOc1c(CNC(=O)OC(C)(C)C)n(CC(C)C)c(=O)c2ccc(-c3ccco3)cc12	157 to 158
CCOC(=O)c1cnc2c(NC(=O)c3c(Cl)cccc3Cl)cccc2c1SCC(=O)O	174 to 175
CCn1c(C(O)(c2cccc(C(F)(F)F)c2)c2cccc(C(F)(F)F)c2)nc(-c2ccncc2)c1-c1ccc(Cl)cc1	193 to 195
CCNC(=O)c1ccc(N2CCN(Cc3cc(C)c4c(c3)NC(=O)C(C)O4)CC2)c(Cl)c1 (stereo not drawn)	227 to 228
COc1cc(C(C)C)ccc1C1(Br)C(=O)c2cccc(NC(C)=O)c2C1=O (stereo not drawn)	143 to 145
Nc1nc2ccccc2c2c1nc(O)n2Cc1ccccc1	> 250
O=C(NCc1ccncc1)c1cc(-n2cnn(Cc3ccc(F)cc3)c2=O)n[nH]1	262 to 263
N=c1sc2cc(OC(F)(F)F)ccc2n1CCSc1ccncc1	143
O=C(NN1CCN(C(=O)C=Cc2ccccc2)CC1)c1ccc(F)cc1	235 to 240
C=CC(=O)c1ccc(OC(=O)c2ccc(C#N)cc2)cc1	122
N#Cc1c(-c2ccc(F)cc2)cc2c3c1ccn3C(=O)CNC2	248 to 250
CCOC(=O)C(=CNC1CC1)C(=O)c1cc(F)c(F)c(Cl)c1F	78 to 80
OCC1OC(n2c(NC3CC3)nc3cc(Cl)c(Cl)cc32)C(O)C1O (stereo not drawn)	184 to 186
COc1cc(CCc2ccc(N)cc2)cc(OC)c1OC	84 to 85
CCN1C(=O)C(C)(C)C(=O)N(C)c2cc(CN(CCn3ccc4oc(C)cc4c3=O)Cc3nc(C)n4ccccc34)ccc21	104 to 109
CCOc1nn(-c2c(Cl)cc(C(F)(F)F)cc2Cl)c(N)c1C(=O)c1cccc(C(F)(F)F)c1	77 to 78
Cc1cccc(NCC(C)Br)c1C (stereo not drawn)	55 to 58
COC(=O)c1ncn2c1CN(C)C(=O)c1cc(F)ccc1-2	195 to 196
O=C(O)CCCCCC(c1cc(F)ccc1F)S(=O)(=O)c1ccc(Cl)cc1 (stereo not drawn)	72 to 76
O=C(C=C(c1ccccc1)c1ccccc1)Nc1ccc(C(=O)O)cc1	222 to 224
CC(=O)c1ccc2c(c1O)CC(O)CO2 (stereo not drawn)	130 to 132
COC(=O)c1cc(-c2nc(COc3ccc(CCl)cc3OC)c(C)o2)ccc1OS(C)(=O)=O	146 to 147

SMILES	melting point [°C]
C[Si](C)(C)OC(Cn1ccnc1)(Cn1ccnc1)c1ccc(F)cc1F	134 to 136
N#Cc1ccccc1OC1SCC(O)C(O)C1O (stereo not drawn)	130 to 132
Cc1nnc2n1-c1sc(C#CCN3C(=O)c4ccccc4S3(=O)=O)cc1C(c1ccccc1Cl)=NC2	232 to 234
CCOC(=O)COc1c(Cl)c(Cl)c2c(-c3ccccc3F)noc2c1Cl	140 to 143
COc1cc(OC)cc(-c2nn(C(C)c3oc4ccccc4c(=O)c3-c3cccc(F)c3)c3ncnc(N)c23)c1 (stereo not drawn)	224 to 227
N#Cc1cccc(CSc2nnc(-c3ccc4[nH]ncc4c3)o2)c1	172 to 173
Cc1ccc(C(=O)NC(NC(=NC#N)Nc2cccnc2)C(C)(C)C)cc1 (single isomer, unassigned; (+))	188 to 189
COc1cc(O)cc(Cc2cnc(N)nc2N)c1	246 to 248
CN1CCN(c2ccc3nc(N)c(C#N)c(NCc4ccccc4)c3c2)CC1	176
Cc1cc(Cc2ccc(O)cc2)n(C)c1C(=O)c1ccc(Cl)cc1	183 to 185
CN(C)S(=O)(=O)c1ccc(COc2cccc3c2CN(C2CCC(=O)NC2=O)C3=O)cc1 (stereo not drawn)	261 to 263
COC(=O)C(C)c1ccc2nc(-c3ccc(Cl)cc3)ccc2c1 (stereo not drawn)	114 to 115
O=C(CC1CCCCCC1)c1cn(CCO)c2cccc(Cl)c12	113 to 119
Cc1cccc(OCc2cccc(OCc3ccc4ccccc4n3)c2)c1C(=O)O	154 to 156
Cc1ccc(-c2ccc(S(C)(=O)=O)cc2)n1-c1ccc(F)cc1	110 to 112
COC1CC(OC)(OC)C(=O)N1 (stereo not drawn)	86
NC1=CN(N)NN=C1c1cccc(Cl)c1Cl	216 to 218
COc1cc(C(=O)[C@H](C)NC(=O)C(F)(F)F)c(OC)cc1Br	144 to 145
COc1cc2cc3c(Nc4ccc(Sc5nccn5C)c(Cl)c4)c(C#N)cnc3cc2cc1OCCCl	275 to 280
CCCCn1c(=O)n(CC)c(=O)c2c1ncn2S(=O)(=O)c1ccc(C)cc1	135 to 139
COC1CCC2C3CCC4CC(=NO)C(C)CC4(C)C3CCC12C (stereo not drawn)	203 to 211
CC1NC(=O)NN=C1c1cccc(Cl)c1 (stereo not drawn)	206 to 208
Cc1c(F)cc(C(=O)O)cc1F	153

SMILES	melting point [°C]
CSC1=Nc2ccc(C)cc2Cn2nnnc21	157 to 160
O=S(=O)(c1ccccc1F)N1CCCC1c1ccc(F)cc1 (racemic)	91
Cc1nnc(Cl)c(-c2c(F)cc(F)cc2F)c1-c1ccc2ccccc2c1	86 to 89
O=S(=O)(c1ccccc1)n1ccc2c(Cl)ncnc21	163 to 167
O=C(Nc1ccc(F)cn1)c1cc(-c2ccc(Cl)c(Cl)c2)nc2ccccc12	204 to 205
O=C(O)CCc1cc(OCCCc2cn(-c3ccc(C(F)(F)F)cn3)nc2C2CCCCC2)nn1C1CCCCC1	190 to 191
OC(CCCl)COc1ccc(Cl)c(Cl)c1 (stereo not drawn)	82 to 84
CCOC(=O)c1c2ccc(Cl)cc2c(-c2ccccc2)n1CCN(CC)CC	75 to 77
O=C(OC(c1ccc(Cl)c2nc3n(c12)CCCN3c1ccc(Cl)cc1Cl)C1CC1)C1CC1 (stereo not drawn)	168 to 170
c1cn(CCc2ccc3c(c2)-c2[nH]nc(-c4ccsc4)c2C3)cn1	212 to 216
O=C(NCCOC1CCCCO1)c1cc([N+](=O)[O-])cc([N+](=O)[O-])c1N(CCO)CCBr (stereo not drawn)	121 to 123
CCn1c(=O)c(-c2cc(OC)cc(OC)c2)cc2cnc(Nc3ccncc3)nc21	305 to 307
COc1ccc2[nH]c(C)c(CCNC(=O)C3CC3)c2c1	102 to 103
N#Cc1ccc(Oc2ccc([N+](=O)[O-])c(Oc3ccccc3)c2Cl)cc1	140 to 142
O=c1c2c(Cl)cccc2nc(CSc2ncnc3[nH]cnc23)n1-c1ccccc1Cl	234
O=c1ccccn1[C@@H]1c2cc(C(F)(F)C(F)(F)F)ccc2OC(CF)(CF)[C@H]1O (relative stereo)	162 to 164
O=C(O)c1ccc(CN(C2CCOCC2)S(=O)(=O)c2ccc(Cl)cc2)cc1	218 to 219
CCN1C(=O)C(=O)c2cc(S(=O)(=O)N(C)C)ccc21	165 to 167
CCOC(=O)CNC(=S)NC(Cc1ccc(OC)cc1)=Nc1ccccc1	120 to 121
CCCCCCCCCCCCCCCCC(CO)C(=O)O (stereo not drawn)	62 to 67
O=C(Nc1ccc2nc(CN3CCOCC3)ccc2c1)c1ccc(-c2ccc(F)cc2)cc1	211 to 212
Cc1cc(Nc2cc(-c3c(C)cccc3C)nc(Sc3ccc4ccccc4c3)n2)[nH]n1	148 to 152
